This test relates to P388 leukemia ip, CD2F1 mice, survival T/C. As to the kind of experiment: NCI In Vivo Anticancer Drug Screen. Data for tumor model P388 Leukemia (intraperitoneal) in CD2F1 (CDF1) mice. Particulars: endpoint: median survival time, higher = longer survival. In short, it runs like this:
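Mice carrying the transplanted tumor received test compound or vehicle. Survival was recorded in each group, and the value is the treated-group measurement divided by that of the vehicle-treated control group.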

Setting [1] is: dose: 50.0 mg/kg/injection, schedule: Q01DX009 (ip), vehicle: saline with Tween-80.
Where [2] appears, read: dose: 100.0 mg/kg/injection, schedule: Q01DX009 (ip), vehicle: saline with Tween-80.
Setting [3] is: dose: 200.0 mg/kg/injection, schedule: Q01DX009 (ip), vehicle: saline with Tween-80.
Where [4] appears, read: dose: 50.0 mg/kg/injection, schedule: Q01DX005 (ip), vehicle: saline with Tween-80.
Setting [5] is: dose: 100.0 mg/kg/injection, schedule: Q01DX005 (ip), vehicle: saline with Tween-80.
The mark [6] stands for this setting: dose: 60.0 mg/kg/injection, schedule: Q01DX005 (ip), vehicle: saline with Tween-80.
The mark [7] stands for this setting: dose: 120.0 mg/kg/injection, schedule: Q01DX005 (ip), vehicle: saline with Tween-80.
Setting [8] is: dose: 240.0 mg/kg/injection, schedule: Q01DX005 (ip), vehicle: saline with Tween-80.
Setting [9] is: dose: 200.0 mg/kg/injection, schedule: Q01DX005 (ip), vehicle: saline with Tween-80.

“And” between values parts separate entries of the source, which are not always exact repeats. Identical values can stand only once. Toxic doses and inconclusive results are not listed.

For `O=C(C=C(C(F)(F)F)C(F)(F)F)c1c2ccccc2cc2ccccc12`, the T/C is 91 % of control (dose: 0.78 mg/kg/injection, schedule: Q01DX009 (ip), vehicle: DMSO); 98 % of control (dose: 1.56 mg/kg/injection, schedule: Q01DX009 (ip), vehicle: DMSO); 87 % of control and 89 % of control (dose: 3.12 mg/kg/injection, schedule: Q01DX009 (ip), vehicle: DMSO).

Turning to `NNc1ccc2nccn2n1`, the T/C is 95 % of control (dose: 6.25 mg/kg/injection, schedule: Q01DX009 (ip), vehicle: saline with Tween-80); 101 % of control (dose: 12.5 mg/kg/injection, schedule: Q01DX009 (ip), vehicle: saline with Tween-80); 94 % of control (dose: 25.0 mg/kg/injection, schedule: Q01DX009 (ip), vehicle: saline with Tween-80).

Take `c1c2c(cc3c1OCN(C1CC1)C3)OCN(C1CC1)C2`: the T/C reads like this: under setting [1], 94 % of control; under setting [2], 90 % of control; under setting [3], 96 % of control.

With `CNC(=O)Sc1ccc(C)c(N(C)C)c1`, the T/C by setting is: under setting [4], 111 % of control and 117 % of control; under setting [5], 120 % of control.

On to `CCCCCCCCCCNCCSSCc1ccccc1`, for which the T/C is, setting by setting: (dose: 12.5 mg/kg/injection, schedule: Q04DX002 (ip), vehicle: Klucel (hydroxypropylcellulose) (HPC)) 100 % of control; (dose: 25.0 mg/kg/injection, schedule: Q04DX002 (ip), vehicle: Klucel (hydroxypropylcellulose) (HPC)) 100 % of control; (dose: 50.0 mg/kg/injection, schedule: Q04DX002 (ip), vehicle: Klucel (hydroxypropylcellulose) (HPC)) 109 % of control; (dose: 100.0 mg/kg/injection, schedule: Q04DX002 (ip), vehicle: Klucel (hydroxypropylcellulose) (HPC)) 105 % of control.

`C/C=C/C=C1/OC(C)=C(C(C)=O)C1=O`: the T/C by setting is: (dose: 12.5 mg/kg/injection, schedule: Q01DX009 (ip), vehicle: saline + Tween-80 + alcohol) 117 % of control; (dose: 25.0 mg/kg/injection, schedule: Q01DX009 (ip), vehicle: saline + Tween-80 + alcohol) 114 % of control; (dose: 100.0 mg/kg/injection, schedule: Q01DX009 (ip), vehicle: saline + Tween-80 + alcohol) 112 % of control; under setting [2], 124 % of control; (dose: 200.0 mg/kg/injection, schedule: Q01DX009 (ip), vehicle: saline + Tween-80 + alcohol) 123 % of control.

As for `CCN(CCOC(=O)Nc1ccc(F)cc1)c1ccccc1`, the T/C by setting is: under setting [6], 111 % of control; under setting [7], 96 % of control; under setting [8], 94 % of control.

For `COc1cc2c(OC)c(c1)CCc1cc(OC)c(cc1OC)CC2`, the T/C was 97 % of control under setting [4], 97 % of control under setting [5] and 94 % of control under setting [9].

On to `COc1ccc2c(c1)CCc1cc(OC)ccc1/[N+]([O-])=[N+]\2[O-]`, for which the T/C was 93 % of control under setting [6], 93 % of control under setting [7] and 101 % of control under setting [8].

For the compound `O=c1c2ccccc2sc2cccc(NCCCN3CCN(CCCNc4cccc5sc6ccccc6c(=O)c45)CC3)c12`, the T/C reads like this: (dose: 0.5 mg/kg/injection, schedule: Q01DX005 (ip), vehicle: saline with Tween-80) 100 % of control; (dose: 1.0 mg/kg/injection, schedule: Q01DX005 (ip), vehicle: saline with Tween-80) 99 % of control; (dose: 2.0 mg/kg/injection, schedule: Q01DX005 (ip), vehicle: saline with Tween-80) 99 % of control; (dose: 4.0 mg/kg/injection, schedule: Q01DX005 (ip), vehicle: saline with Tween-80) 95 % of control; (dose: 8.0 mg/kg/injection, schedule: Q01DX005 (ip), vehicle: saline with Tween-80) 88 % of control.

Regarding `C/C(=C\c1ccccc1)C(=O)C(CN(C)C)CN(C)C`, the T/C is 111 % of control (dose: 1.87 mg/kg/injection, schedule: Q01DX005 (ip), vehicle: saline); 113 % of control (dose: 3.75 mg/kg/injection, schedule: Q01DX005 (ip), vehicle: saline); 100 % of control and 113 % of control (dose: 7.5 mg/kg/injection, schedule: Q01DX005 (ip), vehicle: saline).

As for `CC(=NCc1ccccc1)c1c(C)cc(=O)n(-c2ccccc2)c1O`, the T/C under setting [6] was 96 % of control, the T/C under setting [7] is 97 % of control and the T/C under setting [8] was 89 % of control.

As for `Cc1csc(=NCc2cccnc2)n1C`, the T/C is, setting by setting: (dose: 6.25 mg/kg/injection, schedule: Q01DX009 (ip), vehicle: saline) 100 % of control; (dose: 12.5 mg/kg/injection, schedule: Q01DX009 (ip), vehicle: saline) 107 % of control.

Consider `CCCCCCCCCCCC(=O)OC1CCC2(C)C(=CCC3C2CCC2(C)C(C(C)CCC(CC)C(C)C)CCC32)C1` (centres undefined), for which the T/C was 104 % of control under setting [1], 95 % of control under setting [2] and 90 % of control under setting [3].

`COc1ccc2c(c1OC)C(OC)OC(c1cc3c(cc1CCN(C)C)OCO3)C2` (centres undefined): the T/C (dose: 12.5 mg/kg/injection, schedule: Q01DX001 (ip), vehicle: saline + alcohol) is 91 % of control; the T/C (dose: 25.0 mg/kg/injection, schedule: Q01DX001 (ip), vehicle: saline + alcohol) is 88 % of control; the T/C (dose: 50.0 mg/kg/injection, schedule: Q01DX001 (ip), vehicle: saline + alcohol) was 91 % of control.

With `O=S(=O)(c1ccccc1)N1CN2CCN(C2)C1`, the T/C under setting [1] was 123 % of control and the T/C under setting [3] was 150 % of control.

On to `Oc1cc2c(cc1C(c1ccc(F)cc1)N1CCOCC1)OCO2` (centres undefined), for which the T/C is, setting by setting: under setting [6], 117 % of control; under setting [7], 102 % of control; under setting [8], 108 % of control.

With `C#CC(O)C1CC1` (centres undefined), the T/C (dose: 100.0 mg/kg/injection, schedule: Q01DX001 (ip), vehicle: saline + Tween-80 + alcohol) was 101 % of control.

With `CSc1ccc(NC(=O)Nc2nccs2)cc1`, the T/C is 95 % of control (dose: 100.0 mg/kg/injection, schedule: Q04DX003 (ip), vehicle: saline with Tween-80); 100 % of control (dose: 200.0 mg/kg/injection, schedule: Q04DX003 (ip), vehicle: saline with Tween-80); 90 % of control (dose: 400.0 mg/kg/injection, schedule: Q04DX003 (ip), vehicle: saline with Tween-80).

With `O=C1c2ccccc2C(=O)N1CC[P+](c1ccc(Cl)cc1)(c1ccc(Cl)cc1)c1ccc(Cl)cc1`, the T/C (dose: 25.0 mg/kg/injection, schedule: Q01DX009 (ip), vehicle: other) is 95 % of control.

In the case of `O=C1c2ccccc2-c2cc(O)c3c4c(O)cc5c6c(ccc(c7ccc1c2c73)c64)C(=O)c1ccccc1-5`, the T/C runs as follows: under setting [4], 95 % of control; under setting [5], 91 % of control; under setting [9], 89 % of control.

On to `N#C/C(=C\Nc1ccccn1)C(=O)C1CC1`, for which the T/C reads like this: under setting [6], 100 % of control; under setting [7], 92 % of control; under setting [8], 91 % of control.

Turning to `NS(=O)(=O)c1ccc(NC(=O)Nc2cc(C(F)(F)F)ccc2Cl)cc1`, the T/C runs as follows: under setting [6], 103 % of control; under setting [7], 96 % of control; under setting [8], 87 % of control.

On to `COc1ccc(C2C(S(=O)(=O)c3ccccc3)CON2c2ccccc2)cc1` (centres undefined), for which the T/C is 97 % of control under setting [4], 96 % of control under setting [5] and 89 % of control under setting [9].

In the case of `CCc1ccc(NS(=O)(=O)c2ccc(F)cc2)cc1`, the T/C runs as follows: under setting [6], 104 % of control; under setting [7], 104 % of control; under setting [8], 96 % of control.

With `COc1ccc(CNCCNCc2ccc(OC)cc2)cc1`, the T/C reads like this: (dose: 50.0 mg/kg/injection, schedule: Q01DX001 (ip), vehicle: Klucel (hydroxypropylcellulose) (HPC)) 93 % of control; (dose: 100.0 mg/kg/injection, schedule: Q01DX001 (ip), vehicle: Klucel (hydroxypropylcellulose) (HPC)) 93 % of control; (dose: 200.0 mg/kg/injection, schedule: Q01DX001 (ip), vehicle: Klucel (hydroxypropylcellulose) (HPC)) 90 % of control.

As to `COC1CCC(CO)O1` (centres undefined), the T/C (dose: 50.0 mg/kg/injection, schedule: Q01DX009 (ip), vehicle: suspension in saline) was 100 % of control; the T/C (dose: 100.0 mg/kg/injection, schedule: Q01DX009 (ip), vehicle: suspension in saline) was 108 % of control; the T/C (dose: 200.0 mg/kg/injection, schedule: Q01DX009 (ip), vehicle: suspension in saline) was 102 % of control.

Consider `NC(=S)N/N=C1/C(=O)N(c2ccc(Cl)cc2)C(=O)C1C(=O)Nc1ccc(Cl)cc1` (centres undefined), for which the T/C is 97 % of control (dose: 15.0 mg/kg/injection, schedule: Q01DX005 (ip), vehicle: saline with Tween-80); 94 % of control (dose: 30.0 mg/kg/injection, schedule: Q01DX005 (ip), vehicle: saline with Tween-80); 93 % of control and 94 % of control under setting [6].

Turning to `Nc1nc(N)c(-c2ccc(Cl)c(Cl)c2)c(COc2cccc(CNC(=O)c3cccc(S(=O)(=O)F)c3)c2)n1`, the T/C is, setting by setting: (dose: 100.0 mg/kg/injection, schedule: Q04DX003 (ip), vehicle: Klucel (hydroxypropylcellulose) (HPC)) 110 % of control; (dose: 400.0 mg/kg/injection, schedule: Q04DX003 (ip), vehicle: Klucel (hydroxypropylcellulose) (HPC)) 120 % of control.

Source of the values: PubChem BioAssay AID330 (DTP/NCI, 2004).
